Measured values reported in paper PMC7589200, “Identification of Putative Non-Substrate-Based XT-I Inhibitors by Natural Product Library Screening” (Biomolecules, 2020).

Assays:
[1] = target: T1, XT-I (Homo sapiens, UniProt Q86Y38); experiment: Enzyme and inhibition kinetics (mode of inhibition), UPLC/ESI-MS/MS XT-I assay; type: biochemical; conditions: inhibitor at IC50 concentration; for Vmax: Figure 2, modified acceptor peptide varied, 15 μM UDP-D-xylose, Michaelis-Menten; for Vmax [AU]: Table S2, Michaelis-Menten plot, nonlinear regression
T1 sequence (Q86Y38 260-959 limits assumed): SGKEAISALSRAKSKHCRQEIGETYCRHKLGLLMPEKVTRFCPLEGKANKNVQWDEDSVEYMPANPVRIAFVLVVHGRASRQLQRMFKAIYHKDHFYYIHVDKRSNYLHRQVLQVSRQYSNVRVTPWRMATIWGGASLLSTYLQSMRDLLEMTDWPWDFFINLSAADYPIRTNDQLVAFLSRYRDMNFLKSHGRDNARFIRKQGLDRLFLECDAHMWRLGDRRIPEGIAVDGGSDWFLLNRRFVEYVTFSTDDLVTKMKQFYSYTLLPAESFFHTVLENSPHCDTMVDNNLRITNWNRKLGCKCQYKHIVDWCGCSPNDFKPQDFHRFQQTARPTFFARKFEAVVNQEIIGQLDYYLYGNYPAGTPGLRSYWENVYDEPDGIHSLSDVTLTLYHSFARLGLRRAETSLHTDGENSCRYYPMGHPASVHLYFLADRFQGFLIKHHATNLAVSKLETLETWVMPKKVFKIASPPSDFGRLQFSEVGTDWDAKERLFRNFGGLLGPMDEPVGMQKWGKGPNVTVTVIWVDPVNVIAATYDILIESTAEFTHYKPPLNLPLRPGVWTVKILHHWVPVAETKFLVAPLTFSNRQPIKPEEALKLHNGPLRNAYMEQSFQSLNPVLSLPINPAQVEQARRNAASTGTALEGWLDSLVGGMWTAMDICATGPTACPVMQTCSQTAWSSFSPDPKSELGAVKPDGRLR
Source text: The measurement of relative XT-I activity among different samples is based on the XT-catalyzed incorporation of xylose from UDP-D-xylose on a modified bikunin-derived peptide after a fixed reaction time. The assay was originally developed for the determination of XT activity in human- or cell-culture-derived samples [13] by ultra-performance liquid chromatography/electrospray ionization tandem mass spectrometry (UPLC/ESI-MS/MS). The UPLC/ESI-MS/MS XT assay was recently modified toward a XT-I selective activity determination in human serum and cell culture samples (unpublished data). The relative intensities of the xylosylated peptide species abundance obtained with the respective m/z ratio were directly proportional to the relative XT-I activity of the sample. The XT-I activity determined is expressed in arbitrary units and normalized to the total protein content per 1 mL sample volume in cell culture approaches. A calibrator probe with a fixed amount of recombinant XT-I enzyme was included in every UPLC-MS/MS XT-I assay for assay comparability across multiple runs. The assay reaction mixture (50 μL) contained 50% (v/v) of the respective XT-I enzyme solution and 50% (v/v) reaction buffer. The final XT-I assay contained 25 mM MES buffer (pH 6.5), 25 mM KF buffer, 5 mM MnCl2, 5 mM MgCl2, 7.0 μM modified acceptor peptide and 30 μM UDP-D-xylose. The sample preparation for UPLC/ESI-MS/MS was performed according to [13]. In brief, after sample incubation at 37 °C for 24 h, the reaction was stopped by heating at 99 °C for 10 min. After centrifugation (10,000× g, 10 min) the supernatant was diluted fivefold with UPLC water for analysis. All cell-based XT-I assays were carried out in three biological and three technical replicates per donor-derived primary cell culture, while the XT-I activity determination for screening or kinetic purposes was carried out at least in technical duplicates.
The mode of inhibition (MOI) study was performed by evaluating the inhibitors’ impact on the enzyme parameters’ Michaelis constant Km and the maximum activity Vmax. In order to determine the enzyme and inhibition kinetics, XT-I activity determination of the recombinant XT-I protein solution with and without inhibitor supplementation was carried out in the presence of different acceptor peptide concentrations ranging from 1 to 30 μM. […] The Km and Vmax were determined with the Michaelis–Menten equation and nonlinear regression analysis, while the slope and Y-intersection values were determined by a Lineweaver–Burk plot and simple linear regression using GraphPad Prism 8.0 (GraphPad Software, La Jolla, United States) software.

[2] = system: XYLT2 mRNA expression; experiment: XYLT2 mRNA expression in NHDFs by qRT-PCR; type: cell-based, human; conditions: 48 h
Description: (§1) A former established cell culture model was utilized to investigate the effect of putative XT-I inhibitors on NHDFs. The inhibition studies were carried out with final inhibitor concentrations of 0.5, 1.0, 2.0 or 4.0 μM diluted in fully supplemented DMEM. In brief, unless otherwise stated, NHDFs were cultivated with a low density of 50 cells per mm^2 on a hard tissue culture substrate (100 × 20 mm dish) in fully supplemented DMEM with or without additional TGF-β1 (5 μg/L) for 24 h, promoting their transdifferentiation into proto-myofibroblasts. Thereafter, cells were treated with celastrol or amphotericin B in the presence or absence of TGF-β1 (5 μg/L) for an additional 48 h. Negative controls treated with solvent only were included for every sampling time. The final DMSO content of 0.04% (v/v) was kept constant in all inhibition experiments.
(§2) The RNA extraction from cell lysates and cDNA synthesis for mRNA and miRNA expression analysis were performed as described previously.
(§3) Quantitative real-time polymerase chain reaction (qRT-PCR) analysis using a LightCycler 480 Instrument II system (Roche, Basel, Swiss) was performed as previously described. The qRT-PCR experiments were conducted with three biological and three technical replicates per donor-derived primary cell culture, unless otherwise stated. The intron-spanning primer sequences used are listed in [7] and Table 1. The geometric mean of the expression levels of the housekeeping genes SDHA, RPL13A and B2M were calculated for expression normalization. The relative target gene mRNA expressions were determined by the ΔΔCT method considering the PCR efficiency. All normalized gene expression levels shown were referred to the respective target gene expression of one primary cell culture sample for the relative comparison of multiple biological samples per experiment and figures.

[3] = system: XYLT1 mRNA expression; experiment: XYLT1 mRNA expression in NHDFs by qRT-PCR; type: cell-based, human; conditions: 48 h; for TGF-β1-mediated XYLT1 mRNA expression relative to TGF-β1 only: with TGF-β1 (5 μg/L)
Description: as §1, with “experiments. […]” for “experiments.”
as §2, §3

Structure (SMILES) | Vmax [1] | Vmax [AU] [1] [AU] | mode of inhibition (MOI) regarding the acceptor peptide [1] | XYLT2 mRNA expression level ([2]; 2.0 μM with TGF-β1 (5 μg/L), versus TGF-β1 only) | TGF-β1-mediated XYLT1 mRNA expression relative to TGF-β1 only ([3]; 0.5 μM) | basal XYLT1 mRNA expression relative to control ([3]; 0.5 μM, without TGF-β1) | TGF-β1-mediated XYLT1 mRNA expression relative to TGF-β1 only ([3]; 1.0 μM) [fold] | basal XYLT1 mRNA expression relative to control ([3]; 1.0 μM, without TGF-β1) [fold] | TGF-β1-mediated XYLT1 mRNA expression relative to TGF-β1 only ([3]; 2.0 μM) [fold] | basal XYLT1 mRNA expression relative to DMSO control ([3]; 2.0 μM, without TGF-β1) [fold] | XYLT2 mRNA expression level ([2]; 1.0 μM in the presence of TGF-β1 (5 μg/L))
C[C@@H]1[C@H](O)[C@@H](C)/C=C/C=C/C=C/C=C/C=C/C=C/C=C/[C@H](O[C@@H]2O[C@H](C)[C@@H](O)[C@H](N)[C@@H]2O)C[C@@H]2O[C@](O)(C[C@@H](O)C[C@@H](O)[C@H](O)CC[C@@H](O)C[C@@H](O)CC(=O)O[C@H]1C)C[C@H](O)[C@H]2C(=O)O [Compound 17, Amphotericin B] | 10 ± 0.4 ·10^3 AU | 10031 ± 388 | uncompetitive | did not differ | 0.9 ± 0.07 fold | 0.6 ± 0.06 fold | 0.8 ± 0.06 | 0.6 ± 0.05 | 0.7 ± 0.03 | 0.6 ± 0.09 | 
CC1=C(O)C(=O)C=C2C1=CC=C1[C@@]2(C)CC[C@@]2(C)[C@@H]3C[C@](C)(C(=O)O)CC[C@]3(C)CC[C@]12C [Compound 68, Celastrol] | 12 ± 0.6 ·10^3 AU | 11826 ± 551 | competitive |  | nor effected | neither changed | 0.8 ± 0.07 | 0.8 ± 0.06 |  |  | did not alter
